# Measurements: patent US10639251B2, “Method for inhibiting or masking fishy odours” (Symrise AG, priority 2015, dated 2020)
# What was measured:
# humans = settings: in vivo; cited from earlier work
# panelists = assay: Olfactory detection threshold of TMA, 3-alternative forced-choice, ISO 13301; type: in vivo, human; settings: for olfactory detection threshold of TMA: buffered aqueous solution pH 9
# Protocol: In addition, olfactory detection thresholds were assessed in aqueous solutions using a best estimate threshold approach as described in ISO 13301. In brief, samples containing different concentrations of analyte were presented in ascending order in a 3-alternative forced-choice design. Each concentration set consisted of three samples with one deviating sample containing a defined amount of trimethylamine. Samples were presented in amber vials (30 ml) coded with three digits and filled with 10 ml of solution, and panelists were required to designate the sample that differed from the others.
# Thresholds of TMA were measured in buffered aqueous solution i) without additive ii) with 1% (m/m) Timberol® and iii) with 0.1% Mugetanol (isointense to 1% Timberol®). These experiments were performed separately on different days with the same panelists. In the case of testing in the presence of fragrance components (Timberol® or Mugetanol), all three samples of a given concentration set contained the same amount of fragrance components and differed only in the presence/absence of TMA. In each session, a total of 10 concentration sets ranging from […] to 1.00×10^−5% (m/m) TMA were evaluated. The concentration doubled in each step.
# The aqueous solutions were buffered with TRIS (50 mM), and the pH was adjusted to 9 to have approximately 13% of the TMA in a deprotonated and thus volatile form. Furthermore, an odorless emulsifier was added to a final concentration of 3% (m/m) to dissolve Timberol®.
# In a second step, the influence of Timberol® on the perception of TMA was investigated using a psychophysical approach. Therefore the detection thresholds of TMA alone and in the presence of suprathreshold concentrations of Timberol® were tested. Threshold measurements were performed in a 3-alternative forced-choice design according to ISO 13301. A total of 10 concentrations (binary dilution steps) ranging from […] to 1.00×10^−5% (m/m) TMA were examined.
# hTAAR5 [1] = target: T1, hTAAR5 (Homo sapiens, UniProt O14804); settings: agonist; cited from earlier work
# T1 construct: expressed in transfected cells; host or cells: HANA3A cells
# T1 sequence (O14804 1-337): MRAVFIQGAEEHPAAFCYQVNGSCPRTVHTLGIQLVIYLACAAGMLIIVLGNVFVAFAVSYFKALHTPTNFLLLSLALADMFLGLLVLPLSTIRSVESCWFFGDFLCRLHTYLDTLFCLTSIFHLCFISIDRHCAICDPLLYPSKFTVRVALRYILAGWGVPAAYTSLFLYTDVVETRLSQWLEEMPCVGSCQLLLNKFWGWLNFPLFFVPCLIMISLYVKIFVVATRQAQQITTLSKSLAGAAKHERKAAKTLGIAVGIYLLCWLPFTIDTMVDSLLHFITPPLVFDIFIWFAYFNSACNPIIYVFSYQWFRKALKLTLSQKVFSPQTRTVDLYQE
# MOR42-3 = target: T2, MOR42-3 (Mus musculus, UniProt E9PX47); assay: Cre-luciferase reporter gene assay, concentration-response curve of azelaic acid on MOR42-3 (Dual-Glo Luciferase, transfected HANA3A cells); type: cell-based; settings: agonist alone; murine olfactory receptor MOR42-3 recombinantly expressed in HANA3A cells with RTP1S, G-protein αolf, pGL4-luciferase and pRL-TK-Renilla reporters; 4 h at 37° C.; Hill fit; n=3 in duplicate; FIG. 4A left
# T2 construct: CRE-luciferase readout normalized to Renilla
# T2 sequence (E9PX47 1-334): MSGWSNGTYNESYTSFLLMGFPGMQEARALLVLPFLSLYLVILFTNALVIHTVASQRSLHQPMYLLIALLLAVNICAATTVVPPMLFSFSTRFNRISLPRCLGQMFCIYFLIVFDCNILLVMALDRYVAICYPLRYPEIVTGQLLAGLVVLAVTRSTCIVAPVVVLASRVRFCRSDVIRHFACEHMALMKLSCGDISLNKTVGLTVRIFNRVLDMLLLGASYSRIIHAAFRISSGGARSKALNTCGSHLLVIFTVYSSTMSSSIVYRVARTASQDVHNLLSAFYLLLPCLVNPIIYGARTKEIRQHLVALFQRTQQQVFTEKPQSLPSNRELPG
# Protocol: (§1) In order to identify suitable antagonist for TMA the protocol of Zhuang and Matsunami for measuring receptor activity with the Dual-Glo Luciferase Assay System (Promega) was adapted [see Nat. Protoc. 3(9), p. 1402-1413 (2008)]. HANA3A cells were maintained under standard conditions in DMEM supplemented with 10% FBS and 100 units/ml penicillin and streptomycin at 37° C. Cells (approximately 15,000 cells/well) were plated on poly-D-lysine-coated 96-well plates (NUNC) and transfected after 24 h with the FuGENE® HD (Promega) transfection reagent according to the manufacturer's protocol. […] Expression rates of Cre-luciferase were monitored by luminescent enzymatic reactivity. Thus, luminescence signals correlate with receptor activation. […]
# (§2) For statistical analysis of Cre-luciferase assay data, two-tailed unpaired Student's t-test. […] Sensory data was analyzed using non-parametric statistical tests. The overall difference between the group thresholds was determined by a Kruskal-Wallis test, followed by a Dunn post-hoc test for the respective pairwise comparisons.
# (§3) Another experiment was directed to figure out whether the Timberol® block is exclusively mediated by hTAAR5. […] Then the impact of Timberol® on MOR42-3- and hOR51E1-mediated responses to the respective agonists was tested with concentrations below and above the calculated EC50 values. […]
# hTAAR5 [2] = target: T1, hTAAR5; assay: Cre-luciferase reporter gene assay, hTAAR5-mediated responses to TMA in transfected HANA3A cells; type: cell-based; settings: TMA 300 μM, putative antagonist 100 μM
# Protocol: In order to identify suitable antagonist for TMA the protocol of Zhuang and Matsunami for measuring receptor activity with the Dual-Glo Luciferase Assay System (Promega) was adapted [see Nat. Protoc. 3(9), p. 1402-1413 (2008)]. HANA3A cells were maintained under standard conditions in DMEM supplemented with 10% FBS and 100 units/ml penicillin and streptomycin at 37° C. Cells (approximately 15,000 cells/well) were plated on poly-D-lysine-coated 96-well plates (NUNC) and transfected after 24 h with the FuGENE® HD (Promega) transfection reagent according to the manufacturer's protocol. In a 96-well plate, we placed 18 μl transfection reagent, 1-5 μg receptor plasmid, 2 μg pGL4-luciferase reporter, 1 μg pRL-TK-Renilla reporter, 0.5 μg G-protein αolf, 1 μg receptor transport protein (RTP1S) and 1 μg M3 muscarinic acetylcholine receptor (for hOR51E1) to ensure cell surface expression. Cells were stimulated 24 h after transfection for 4 h at 37° C. with test substances diluted in CD 293 medium (1×) (Life Technologies) with 2 mM L-glutamine (Life Technologies) added. After stimulation with test substances, recombinant hTAAR5 activation elevated cAMP and the subsequent expression of the cAMP-dependent reporter gene construct Cre-luciferase. Expression rates of Cre-luciferase were monitored by luminescent enzymatic reactivity. Thus, luminescence signals correlate with receptor activation. The Renilla luciferase reporter driven by a constitutively active TK-promoter (pRL-TK-Renilla) served as an internal control to determine cell viability and transfection efficiency. Firefly luciferase activity to the Renilla luciferase signal was normalized for all wells. The ratios of antagonistic stimulation were normalized to the ratios of agonist stimulation. Furthermore, mock-transfected cells were stimulated to exclude unspecific responses to the tested substances.
# To identify blocker substances for hTAAR5-mediated responses to TMA, the Cre-luciferase reporter gene assay was used. Human TAAR5-transfected HANA3A cells were stimulated with a mix of the agonist TMA (300 μM) and 100 μM of a potential blocker substance (FIG. 1).
# For more detailed information concerning the type of antagonism (competitive vs. non-competitive) in the following experiments, the pharmacological profile of Timberol® was characterized. To test the concentration dependency of the Timberol® block, a concentration-inhibition curve (FIG. 2a) was measured. The blocking effect was increased with increasing concentrations of Timberol® and decreased with increasing concentrations of the agonist TMA. The latter was reflected by a significant concentration-inhibition curve shift.
# hOR51E1 = target: T3, hOR51E1 (Homo sapiens, UniProt Q8TCB6); assay: Cre-luciferase reporter gene assay, concentration-response curve of nonanoic acid on hOR51E1 (Dual-Glo Luciferase, transfected HANA3A cells); type: cell-based; set-up: expressed in transfected cells; host or cells: HANA3A; settings: agonist alone; human olfactory receptor hOR51E1 recombinantly expressed in HANA3A cells with RTP1S, G-protein αolf, M3 muscarinic acetylcholine receptor, pGL4-luciferase and pRL-TK-Renilla reporters; 4 h at 37° C.; Hill fit; n=3 in duplicate; FIG. 4B left
# T3 sequence (Q8TCB6 1-318): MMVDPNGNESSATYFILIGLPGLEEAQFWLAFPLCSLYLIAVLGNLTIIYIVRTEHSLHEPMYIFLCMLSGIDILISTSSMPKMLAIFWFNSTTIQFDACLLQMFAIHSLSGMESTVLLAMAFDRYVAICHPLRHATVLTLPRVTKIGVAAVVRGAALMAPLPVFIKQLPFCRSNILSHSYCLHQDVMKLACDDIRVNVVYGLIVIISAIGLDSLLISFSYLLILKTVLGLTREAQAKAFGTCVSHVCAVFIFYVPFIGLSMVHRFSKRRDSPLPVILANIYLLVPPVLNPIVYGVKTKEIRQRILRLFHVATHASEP
# Protocol: as §1, §2, §3
structure (smiles),measurement,setting,value
CN [methylamine],detection threshold in humans,humans,180 ppm
"CN(C)C [TMA, trimethylamine, reference compound]",olfactory detection threshold of TMA,panelists; TMA alone,2.0×10^−7 % (m/m)
same,olfactory detection threshold of TMA,panelists; in the presence of Timberol (1% m/m),1.0×10^−6 % (m/m)
same,detection threshold in humans,humans,0.00047 ppm
same,activation of hTAAR5,hTAAR5 [1],specifically activated
"CCN(C)C [DMEA, dimethylethylamine]",activation of hTAAR5,hTAAR5 [1],less efficacy and potency
"O=C(O)CCCCCCCC(=O)O [Azelaic acid, azelaic acid]",EC50,MOR42-3,2.67 ± 0.47 µM
"CC(C)C1CCC(C(C)O)CC1 (stereo not shown) [Mugetanol, reference compound]",influence of additive on TMA detection threshold / perception,panelists; 1% Timberol or 0.1% Mugetanol (isointense),does not influence significantly
same,reduction / inhibition of hTAAR5-mediated TMA responses,hTAAR5 [2],does not inhibit
"CCCCCCCCC(=O)O [Nonanoic acid, nonanoic acid]",EC50,hOR51E1,103 ± 23.1 µM
